Patent US11242337B2, “Compounds useful for treating gastrointestinal tract disorders” (Ardelyx, Inc., priority 2017, dated 2022)

Legend:
NHE3 [1] = molecular target: T1, NHE3 (Homo sapiens, UniProt P48764); assay: Cell-based assay of NHE-3 activity (persistent inhibition), human; settings: human Persistence, 60 min incubation then washout
T1 construct: expressed in transfected cells
T1 sequence (P48764 26-834): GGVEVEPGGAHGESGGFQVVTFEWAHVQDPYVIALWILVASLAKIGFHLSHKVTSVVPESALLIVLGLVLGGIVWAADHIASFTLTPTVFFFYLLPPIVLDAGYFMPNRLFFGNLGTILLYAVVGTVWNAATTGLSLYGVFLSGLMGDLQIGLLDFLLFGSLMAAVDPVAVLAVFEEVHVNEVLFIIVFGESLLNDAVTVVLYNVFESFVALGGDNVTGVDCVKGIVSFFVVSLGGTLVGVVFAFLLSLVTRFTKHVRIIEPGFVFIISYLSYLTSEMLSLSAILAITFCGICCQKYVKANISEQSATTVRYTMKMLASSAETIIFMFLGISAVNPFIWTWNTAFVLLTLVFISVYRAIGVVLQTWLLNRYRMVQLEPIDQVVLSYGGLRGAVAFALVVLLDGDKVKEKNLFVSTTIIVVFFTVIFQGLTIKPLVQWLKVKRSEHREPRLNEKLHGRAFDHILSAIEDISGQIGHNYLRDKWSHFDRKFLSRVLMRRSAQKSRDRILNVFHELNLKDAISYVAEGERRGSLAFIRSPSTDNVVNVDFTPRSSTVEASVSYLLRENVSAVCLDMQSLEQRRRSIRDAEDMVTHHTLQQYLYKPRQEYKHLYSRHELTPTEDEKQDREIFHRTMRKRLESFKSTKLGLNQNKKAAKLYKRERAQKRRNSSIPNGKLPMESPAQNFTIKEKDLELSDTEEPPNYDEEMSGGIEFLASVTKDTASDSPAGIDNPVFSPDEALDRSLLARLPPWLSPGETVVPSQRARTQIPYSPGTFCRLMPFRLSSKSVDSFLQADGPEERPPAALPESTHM
T1 sequence (Q99653 2-195 partner limits assumed): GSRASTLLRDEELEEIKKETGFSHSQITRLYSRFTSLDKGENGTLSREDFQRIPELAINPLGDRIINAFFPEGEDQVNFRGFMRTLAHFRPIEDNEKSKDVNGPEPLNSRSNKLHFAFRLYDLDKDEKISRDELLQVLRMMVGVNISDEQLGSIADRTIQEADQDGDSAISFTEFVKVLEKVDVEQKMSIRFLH
How it was run: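 PS120 fibroblasts expressing human NHE3 with NHERF2 exposed to 0-30 μM compound for 60 min at RT, then washed out; cells acid-loaded by NH4Cl prepulse with BCECF-AM and Na+-free buffer. Na+-driven pH recovery started 10 min post-washout; initial rate of BCECF ratio change (FLIPR) taken as activity.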

NHE3 [2] = molecular target: T1, NHE3; assay: Cell-based assay of NHE-3 activity (pre-incubation inhibition), human; settings: human Preincubation; for pIC50: 0-30 μM test compound
How it was run: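 PS120 fibroblasts stably expressing human NHE3 and NHERF2, loaded 30 min at 37 °C with 5 μM BCECF-AM in NH4Cl buffer, then acidified 10 min at room temperature in Na+-free buffer with 0–30 μM compound. Initial rate of BCECF fluorescence ratio change (FLIPR) per minute taken as Na+/H+ activity.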

Row | % inhibition (NHE3 [1]) | % inhibition (NHE3 [2]) | pIC50 (NHE3 [1]) | pIC50 (NHE3 [2]) | Structure (SMILES)
1 | C (>70%) | C (>70%) |  |  | Cc1cc(S(=O)(=O)N[C@@H]2CCN(CCOCCNC(=O)NCCCCNC(=O)NCCOCCN3CC[C@@H](NS(=O)(=O)c4ccc(O[C@H]5c6cc(Cl)cc(C#N)c6C[C@@H]5N(C)C)c(C)c4)C3)C2)ccc1O[C@H]1c2cc(Cl)cc(C#N)c2C[C@@H]1N(C)C [Example 55, 3-(2-[2-[(3R)-3-[(4-[[(1S,2S)-6-Chloro-4-cyano-2-(dimethylamino)-2,3-dihydro-1H-inden-1-yl]oxy]-3-methylbenzene)sulfonamido]pyrrolidin-1-yl]ethoxy]ethyl)-1-(4-[[(2-[2-[(3R)-3-[(4-[[(1S,2S)-6-chloro-4-cyano-2-(dimethylamino)-2,3-dihydro-1H-inden-1-yl]oxy]-3-methylbenzene)sulfonamido]pyrrolidin-1-yl]ethoxy]ethyl)carbamoyl]amino]butyl)urea]
2 | C (>70%) | C (>70%) | C (NHE3 pIC50 > 7) | C (NHE3 pIC50 > 7) | Cc1cc(O[C@H]2c3cc(Cl)cc(Cl)c3C[C@@H]2N(C)C)c(F)cc1S(=O)(=O)NCCOCCOCCNC(=O)NCCCCNC(=O)NCCOCCOCCNS(=O)(=O)c1cc(F)c(O[C@H]2c3cc(Cl)cc(Cl)c3C[C@@H]2N(C)C)cc1C [Example 88, 3-[2-(2-[2-[(4-[[(1S,2S)-4,6-Dichloro-2-(dimethylamino)-2,3-dihydro-1H-inden-1-yl]oxy]-5-fluoro-2-methylbenzene)sulfonamido]ethoxy]ethoxy)ethyl]-1-[4-([[2-(2-[2-[(4-[[(1S,2S)-4,6-dichloro-2-(dimethylamino)-2,3-dihydro-1H-inden-1-yl]oxy]-5-fluoro-2-methylbenzene)sulfonamido]ethoxy]ethoxy)ethyl]carbamoyl]amino)butyl]urea]
3 | C (>70%) | C (>70%) |  |  | Cc1cc(Cl)cc2c1C[C@H](N1CCNCC1)[C@H]2Oc1ccc(S(=O)(=O)NCCOCCOCCNC(=O)NCCCCNC(=O)NCCOCCOCCNS(=O)(=O)c2ccc(O[C@H]3c4cc(Cl)cc(C)c4C[C@@H]3N3CCNCC3)cc2)cc1 [Example 34, 3-[2-(2-[2-[(4-[[(1S,2S)-6-Chloro-4-methyl-2-(piperazin-1-yl)-2,3-dihydro-1H-inden-1-yl]oxy]benzene)sulfonamido]ethoxy]ethoxy)ethyl]-1-[4-([[2-(2-[2-[(4-[[(1S,2S)-6-chloro-4-methyl-2-(piperazin-1-yl)-2,3-dihydro-1H-inden-1-yl]oxy]benzene)sulfonamido]ethoxy]ethyl)ethyl]carbamoyl]amino)butyl]urea; bis(trifluoroacetic acid)]
4 | C (>70%) | C (>70%) | C (NHE3 pIC50 > 7) | C (NHE3 pIC50 > 7) | Cc1cc(S(=O)(=O)N[C@@H]2CCN(CCOCCNC(=O)NCCCCNC(=O)NCCOCCN3CC[C@@H](NS(=O)(=O)c4ccc(O[C@H]5c6cc(Cl)cc(Cl)c6C[C@@H]5N(C)C)c(C)c4)C3)C2)ccc1O[C@H]1c2cc(Cl)cc(Cl)c2C[C@@H]1N(C)C [Example 53, 3-(2-[2-[(3R)-3-[(4-[[(1S,2S)-4,6-Dichloro-2-(dimethylamino)-2,3-dihydro-1H-inden-1-yl]oxy]-3-methylbenzene)sulfonamido]pyrrolidin-1 yl]ethoxy]ethyl)-1-(4-[[(2-[2-[(3R)-3-[(4-[[(1S,2S)-4,6-dichloro-2-(dimethylamino)-2,3-dihydro-1H-inden-1-yl]oxy]-3-methylbenzene)sulfonamido]pyrrolidin-1-yl]ethoxy]ethyl)carbamoyl]amino]butyl)urea]
